# Source: US20120065152A1 (SHIRE LLC, priority 2010, published 2012)
# Values joined by “and” are separate entries in the source; they are usually repeats but may differ in a detail not shown here. Identical values can stand only once. Counter-ions that a name gives are not always drawn.
# Experiments:
# [1] = Stability studies on guanfacine prodrugs in buffers; type: physicochemical
# [2] = pH 1.2, 37° C., 0.1M HCl/NaCl buffer, 1 h
# [3] = pH 1.2, 37° C., 0.1M HCl/NaCl buffer, time 0
# [4] = pH 3.0, 20° C., 0.1M citrate buffer, 2 h
# [5] = pH 3.0, 20° C., 0.1M citrate buffer, time 0
# [6] = pH 6.8, 37° C., 0.1M phosphate buffer, 2 h
# [7] = pH 6.8, 37° C., 0.1M phosphate buffer, time 0
# [8] = pH 7.4, 37° C., 0.1M phosphate buffer, 2 h
# [9] = pH 7.4, 37° C., 0.1M phosphate buffer, time 0
# [10] = DMSO, organic solvent or mixture, Solubility, in DMSO
# [11] = water/CH3CN (1:1), aqueous with cosolvent or surfactant or cyclodextrin, Solubility, in water/CH3CN (1:1)
# [12] = DMSO, organic solvent or mixture
# [13] = pH 1.2, 37° C., 0.1M HCl/NaCl buffer, time 0, Hydrochloride
# [14] = pH 6.8, 37° C., 0.1M phosphate buffer, 2 h, Hydrochloride
# [15] = pH 7.4, 37° C., 0.1M phosphate buffer, 2 h, Hydrochloride
SMILES,"Active drug [1, 2]","Active drug [1, 3]","Pro-drug [1, 3]","Active drug [1, 4]","Active drug [1, 5]","Pro-drug [1, 5]","Active drug [1, 6]","Active drug [1, 7]","Pro-drug [1, 7]","Active drug [1, 8]","Active drug [1, 9]","Pro-drug [1, 9]",solubility (Solubility; [10]),"solubility (Solubility; water, Solubility, in water)",also measured
"CC(C)COC(=O)NC(N)=NC(=O)Cc1c(Cl)cccc1Cl.Cl [Compound 8, 1-{N′-[2-(2,6-Dichloro-phenyl)-acetyl]-guanidinocarbonyloxy}-2-methylpropane Hydrochloride]",0.0,0.0,100,0.0,0.0,100,0.0,0.0,100,0.0,0.0,100,> 10000 µg/mL,< 1000 µg/mL,"Pro-drug ([1]; pH 1.2, 37° C., 0.1M HCl/NaCl buffer, 1 h, listed as Guanfacine Isobutyl Carbamate Hydrochloride, Hydrochloride): 95.1 and 95.0; Pro-drug ([1]; pH 3.0, 20° C., 0.1M citrate buffer, 2 h, listed as Guanfacine Isobutyl Carbamate Hydrochloride, Hydrochloride): 95.2 and 95.3; Pro-drug ([1]; pH 6.8, 37° C., 0.1M phosphate buffer, 2 h, listed as Guanfacine Isobutyl Carbamate Hydrochloride, Hydrochloride): 98.2 and 97.9; Pro-drug ([1]; pH 7.4, 37° C., 0.1M phosphate buffer, 2 h, listed as Guanfacine Isobutyl Carbamate Hydrochloride, Hydrochloride): 95.3 and 96.7; solubility (Solubility; [11]): > 1000 µg/mL"
"CC(C)(C)COC(=O)NC(N)=NC(=O)Cc1c(Cl)cccc1Cl.Cl [Compound 9, 1-{N′[2-(2,6-Dichloro-phenyl)-acetyl]guanidinocarbonyloxy}-2,2-dimethylpropane Hydrochloride]",0.0,0.0,100,0.0,0.0,100,0.0,0.0,100,0.0,0.0,100,> 10000 µg/mL,< 1000 µg/mL,"Pro-drug ([1]; pH 1.2, 37° C., 0.1M HCl/NaCl buffer, 1 h, listed as Guanfacine Neopentyl Carbamate Hydrochloride, Hydrochloride): 94.7 and 93.9; Pro-drug ([1]; pH 3.0, 20° C., 0.1M citrate buffer, 2 h, listed as Guanfacine Neopentyl Carbamate Hydrochloride, Hydrochloride): 96.1 and 96.8; Pro-drug ([1]; pH 6.8, 37° C., 0.1M phosphate buffer, 2 h, listed as Guanfacine Neopentyl Carbamate Hydrochloride, Hydrochloride): 98.3 and 97.9; Pro-drug ([1]; pH 7.4, 37° C., 0.1M phosphate buffer, 2 h, listed as Guanfacine Neopentyl Carbamate Hydrochloride, Hydrochloride): 99.2 and 98.5; solubility (Solubility; [11]): > 1000 µg/mL"
"NC(=NC(=O)Cc1c(Cl)cccc1Cl)NC(=O)OCc1ccccc1 [Compound 10, {N′-[2-(2,6-Dichloro-phenyl)-acetyl]guanidino-carbonyloxy}toluene Hydrochloride]",–,–,–,–,–,–,–,–,–,–,–,–,> 10000 µg/mL,< 1000 µg/mL,"solubility (Solubility; CH3CN, organic solvent or mixture, Solubility, in CH3CN): > 5000 µg/mL"
"[2H]C([2H])([2H])C([2H])([2H])OC(=O)NC(=N)NC(=O)Cc1c(Cl)cccc1Cl [Compound 13, {N′-[2-(2,6-Dichloro-phenyl)-acetyl]-guanidinocarbonyloxy} d5-ethane]",0.0,0.0,100,0.0,0.0,100,0.0,0.0,100,0.0,0.0,100,> 10000 µg/mL,< 1000 µg/mL,"Pro-drug ([1]; pH 1.2, 37° C., 0.1M HCl/NaCl buffer, 1 h, listed as Guanfacine D5-Ethyl Carbamate): 97.6 and 96.6; Pro-drug ([1]; pH 3.0, 20° C., 0.1M citrate buffer, 2 h, listed as Guanfacine D5-Ethyl Carbamate): 98.7 and 98.3; Pro-drug ([1]; pH 6.8, 37° C., 0.1M phosphate buffer, 2 h, listed as Guanfacine D5-Ethyl Carbamate): 99.4 and 99.2; Pro-drug ([1]; pH 7.4, 37° C., 0.1M phosphate buffer, 2 h, listed as Guanfacine D5-Ethyl Carbamate): 99.4 and 99.2"
"CO[C@H]1O[C@H](COC(=O)NC(=N)NC(=O)Cc2c(Cl)cccc2Cl)[C@@H](O)[C@H](O)[C@H]1O.Cl [Compound 16, 2-(2,6-dichlorophenyl)-N-(N-((((2R,3S,4S,5R,6S)-3,4,5-trihydroxy-6-methoxytetrahydro-2H-pyran-2-yl)methoxy)carbonyl)carbamimidoyl)acetamide hydrochloride]",–,–,–,–,–,–,–,–,–,–,–,–,–,–,"Solubility (in words) (Solubility): water, DMSO"
"N=C(NC(=O)Cc1c(Cl)cccc1Cl)NC(=O)Oc1ccc(CC(=O)O)cc1 [Compound 25, Hydrochloride]",–,–,–,–,–,–,–,–,–,–,–,–,–,–,solubility (Solubility; [12]): > 23000 µg/mL; solubility (Solubility; water): < 2300 µg/mL
"Cl.N=C(NC(=O)Cc1c(Cl)cccc1Cl)NC(=O)Oc1cccc(C(=O)O)c1 [Compound 28, 3-[({[2-(2,6-dichlorophenyl)acetamido]methanimidoyl}carbamoyl)oxy]benzoic acid hydrochloride]",–,–,–,–,–,–,–,–,–,–,–,–,–,–,Solubility (in words) (Solubility): insoluble in water; solubility (Solubility; [12]): > 20000 µg/mL
"CC(C)[C@@H]1CC[C@@H](C)C[C@H]1OC(=O)NC(N)=NC(=O)Cc1c(Cl)cccc1Cl.Cl [Compound 29, 1-(R)-{N′-[2-(2,6-Dichloro-phenyl)-acetyl]-guanidinocarbonyloxy}-2-(S)-isopropyl-5-(R)-methyl-cyclohexane Hydrochloride]",0.0,0.0,100,0.0,0.0,100,0.0,0.0,100,0.0,0.0,100,> 10000 µg/mL,< 1000 µg/mL,"Pro-drug ([1]; pH 1.2, 37° C., 0.1M HCl/NaCl buffer, 1 h, listed as Guanfacine-(−)-Menthyl Carbamate Hydrochloride, Hydrochloride): 94.6 and 95.5; Pro-drug ([1]; pH 3.0, 20° C., 0.1M citrate buffer, 2 h, listed as Guanfacine-(−)-Menthyl Carbamate Hydrochloride, Hydrochloride): 98.3 and 99.6; Pro-drug ([1]; pH 6.8, 37° C., 0.1M phosphate buffer, 2 h, listed as Guanfacine-(−)-Menthyl Carbamate Hydrochloride, Hydrochloride): 97.9 and 97.3; Pro-drug ([1]; pH 7.4, 37° C., 0.1M phosphate buffer, 2 h, listed as Guanfacine-(−)-Menthyl Carbamate Hydrochloride, Hydrochloride): 94.7 and 96.9; solubility (Solubility; 2.5 mL CH3CN/1 mL H2O, aqueous with cosolvent or surfactant or cyclodextrin, Solubility, in 2.5 mL CH3CN/1 mL H2O): > 1430 µg/mL"
"Cl.NC(=NC(=O)Cc1c(Cl)cccc1Cl)NC(=O)OCC1CC1 [Compound 31, {N′-[2-(2,6-Dichloro-phenyl)acetyl]-guanidino-carbonyloxy}methylcyclopropane Hydrochloride]",0.6,0.0,100,0.0,0.0,100,0.0,0.0,100,0.0,0.0,100,> 10000 µg/mL,< 1000 µg/mL,"Pro-drug ([1]; pH 1.2, 37° C., 0.1M HCl/NaCl buffer, 1 h, listed as Guanfacine Cyclopropylmethyl Carbamate Hydrochloride, Hydrochloride): 92.9 and 92.7; Pro-drug ([1]; pH 3.0, 20° C., 0.1M citrate buffer, 2 h, listed as Guanfacine Cyclopropylmethyl Carbamate Hydrochloride, Hydrochloride): 98.3 and 98.5; Pro-drug ([1]; pH 6.8, 37° C., 0.1M phosphate buffer, 2 h, listed as Guanfacine Cyclopropylmethyl Carbamate Hydrochloride, Hydrochloride): 97.6 and 97.4; Pro-drug ([1]; pH 7.4, 37° C., 0.1M phosphate buffer, 2 h, listed as Guanfacine Cyclopropylmethyl Carbamate Hydrochloride, Hydrochloride): 99.6 and 99.5; solubility (Solubility; [11]): > 5000 µg/mL"
CC(C)(C)OC(=O)NC(=N)NC(=O)Cc1c(Cl)cccc1Cl.Cl [Guanfacine Tert-Butyl Carbamate Hydrochloride],–,–,–,–,0.0,100,–,0.0,100,–,0.0,100,–,–,"Pro-drug [1, 2]: 0.0; Active drug ([1]; pH 1.2, 37° C., 0.1M HCl/NaCl buffer, 1 h, Hydrochloride): 99.7 and 100; Active drug [1, 13]: 8.8 and 9.5; Pro-drug [1, 13]: 91.2 and 90.5; Pro-drug [1, 4]: 34.5; Active drug ([1]; pH 3.0, 20° C., 0.1M citrate buffer, 2 h, Hydrochloride): 66.6 and 65.5; Active drug [1, 14]: 14.2 and 15.2; Pro-drug [1, 14]: 83.6 and 84.9; Active drug [1, 15]: 11.0 and 11.2; Pro-drug [1, 15]: 84.2 and 82.7; solubility (Solubility; in 2 mL CH3CN/1 mL H2O): > 5 mg; solubility (Solubility; in DMSO): > 10000 µg/mL; solubility (Solubility; in water): < 1000 µg/mL"
N=C(NC(=O)Cc1c(Cl)cccc1Cl)NC(=O)OC[C@@H](N)Cc1cnc[nH]1.O=C(O)C(F)(F)F.O=C(O)C(F)(F)F.O=C(O)C(F)(F)F [Guanfacine-(S)-histidinyl carbamate Tri-trifluoroacetate],1.7 and 1.8,0.5 and 0.6,99.5 and 99.4,1.2 and 1.3,0.4 and 0.5,99.6 and 99.5,87.1 and 88.1,1.6 and 1.4,98.4 and 98.6,85.4 and 85.8,–,99.2 and 98.1,–,–,"Pro-drug [1, 2]: 84.7 and 83.3; Pro-drug [1, 4]: 98.1 and 97.8; Pro-drug [1, 6]: 0.0; Pro-drug [1, 8]: 0.0; solubility (Solubility; in DMSO): > 20000 µg/mL; solubility (Solubility; in water): > 20000 µg/mL"
